One assay has as its system IL-23p19. The assay is described as follows: LPS induced IL23p19 in THP-1 cells (with IFNγ primed) assay. The class given is cell-based, Human. The following applies: THP-1 cells, IFNγ primed, LPS 1 ug/mL, 18 hours, 10 pt, read-out: IL23-p19 ELISA, THP1-IFNy, LPS, 10 pt EC50. The procedure, abridged:
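THP-1 cells primed ~18 h with IFNγ (50 ng/mL), pre-incubated 1 h with compound at 37 °C, then stimulated 18 h with LPS (1 ug/mL final). Supernatant IL-23p19 measured by sandwich ELISA with chemiluminescent read-out; EC50 from curve fitting. Toxicity checked on the remaining cells by Cell Titer Glo.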
(An ELISA detects its analyte on a solid surface through an enzyme-linked reagent.)

The subject of the next assay is IL-23 (p19/p40). The assay is described as follows: IL23-p19 ELISA, Dendritic, LPS (compound screening using DC cells). The following applies: PBMC-derived DC cells, IFNγ primed, LPS 1 μg/ml, 18 hours, 10 pt, read-out: IL23-p19 ELISA, Dendritic, LPS, 10 pt, EC50. The class given is cell-based, Human. A digest of the protocol: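 Human PBMC-derived dendritic cells (7 d GM-CSF 100 ng/ml + IL-4 20 ng/ml), primed 24 h with IFNγ 50 ng/ml, pre-incubated 1 h with compound, then stimulated 18 h with LPS 1 μg/ml. Supernatant IL-23 measured by p19-capture/p40-detection chemiluminescent ELISA; CellTiter Glo checks cytotoxicity.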

The values that follow come from US10208074B2, “Pyrazole compounds and method for making and using the compounds” (Rigel Pharmaceuticals, Inc., priority 2015, dated 2019).

pEC50: −log10 of the molar value. Like-named read-outs stand apart in the source and are kept apart here.

Take `O=C(Nc1cn([C@H]2C[C@H](OCC(F)(F)F)C2)nc1-c1ccccn1)c1csc(-c2cn[nH]c2)n1` [II-141, 2-(1H-pyrazol-4-yl)-N-(3-(pyridin-2-yl)-1-((trans)-3-(2,2,2-trifluoroethoxy)cyclobutyl)-1H-pyrazol-4-yl)thiazole-4-carboxamide]: the negative logarithm of the EC50 (pEC50) (in general, the EC50 on a negative log10 scale, so that one unit is a factor of ten) was 6.60 in the assay with IL-23p19 (Homo sapiens, THP-1, 18 h) and 7.29 in the assay on IL-23 (p19/p40) (Homo sapiens, 18 h).

Consider `O=C(Nc1cn([C@H]2CC[C@H](O)CC2)nc1-c1ccccn1)c1csc(-c2cn[nH]c2)n1` [II-143, N-(1-((trans)-4-hydroxycyclohexyl)-3-(pyridin-2-yl)-1H-pyrazol-4-yl)-2-(1H-pyrazol-4-yl)thiazole-4-carboxamide], for which the negative-log EC50 (pEC50) in the assay on IL-23p19 (Homo sapiens, THP-1, 18 h) is 7.51; with IL-23 (p19/p40) (Homo sapiens, 18 h), 7.79.

As for `CCO[C@H]1CC[C@H](n2cc(NC(=O)c3csc(-c4cn[nH]c4)n3)c(-c3ccccn3)n2)CC1` [II-145, N-(1-((trans)-4-ethoxycyclohexyl)-3-(pyridin-2-yl)-1H-pyrazol-4-yl)-2-(1H-pyrazol-4-yl)thiazole-4-carboxamide], the pEC50 with IL-23p19 (Homo sapiens, THP-1, 18 h) was 7.18; with IL-23 (p19/p40) (Homo sapiens, 18 h) it was 7.11.

Turning to `CCO[C@H]1C[C@@H](n2cc(NC(=O)c3csc(-c4cn[nH]c4)n3)c(-c3ccc(F)cn3)n2)C1` [II-153, N-(1-((cis)-3-ethoxycyclobutyl)-3-(5-fluoropyridin-2-yl)-1H-pyrazol-4-yl)-2-(1H-pyrazol-4-yl)thiazole-4-carboxamide], the negative logarithm of the EC50 (pEC50) was 6.13 in the assay on IL-23p19 (Homo sapiens, THP-1, 18 h) and 6.85 with IL-23 (p19/p40) (Homo sapiens, 18 h).

On to `CCO[C@@H]1C[C@H](n2cc(NC(=O)c3csc(-c4cn[nH]c4)n3)c(-c3ccccn3)n2)C1F` (stereo partly drawn) [II-155, N-(1-((cis)-3-ethoxy-2-fluorocyclobutyl)-3-(pyridin-2-yl)-1H-pyrazol-4-yl)-2-(1H-pyrazol-4-yl)thiazole-4-carboxamide], for which the pEC50 was 6.40 in the assay on IL-23p19 (Homo sapiens, THP-1, 18 h) and 7.21 in the assay with IL-23 (p19/p40) (Homo sapiens, 18 h).

`CCO[C@H]1C[C@@H](n2cc(NC(=O)c3csc(-c4cn[nH]c4)n3)c(-c3ncccc3F)n2)C1` [II-157, N-(1-((cis)-3-ethoxycyclobutyl)-3-(3-fluoropyridin-2-yl)-1H-pyrazol-4-yl)-2-(1H-pyrazol-4-yl)thiazole-4-carboxamide]: the pEC50 was 7.21 in the assay on IL-23p19 (Homo sapiens, THP-1, 18 h) and 6.25 in the assay with IL-23 (p19/p40) (Homo sapiens, 18 h).

Turning to `CCO[C@H]1C[C@@H](n2cc(NC(=O)c3csc(-c4cn[nH]c4)n3)c(-c3cc(F)ccn3)n2)C1` [II-158, N-(1-((cis)-3-ethoxycyclobutyl)-3-(4-fluoropyridin-2-yl)-1H-pyrazol-4-yl)-2-(1H-pyrazol-4-yl)thiazole-4-carboxamide], the pEC50 in the assay on IL-23p19 (Homo sapiens, THP-1, 18 h) was 6.84; in the assay on IL-23 (p19/p40) (Homo sapiens, 18 h) it was 7.04.

Turning to `CCO[C@H]1C[C@@H](n2cc(NC(=O)c3csc(-c4cn[nH]c4)n3)c(-c3cccc(F)n3)n2)C1` [II-160, N-(1-((cis)-3-ethoxycyclobutyl)-3-(6-fluoropyridin-2-yl)-1H-pyrazol-4-yl)-2-(1H-pyrazol-4-yl)thiazole-4-carboxamide], the pEC50 with IL-23p19 (Homo sapiens, THP-1, 18 h) is 7.57; with IL-23 (p19/p40) (Homo sapiens, 18 h) it was 7.41.

As to `O=C(Nc1cn([C@H]2C[C@@H](OCC(F)(F)F)C2)nc1-c1ccccn1)c1csc(-c2cn[nH]c2)n1` [II-161, 2-(1H-pyrazol-4-yl)-N-(3-(pyridin-2-yl)-1-((cis)-3-(2,2,2-trifluoroethoxy)cyclobutyl)-1H-pyrazol-4-yl)thiazole-4-carboxamide], the pEC50 with IL-23p19 (Homo sapiens, THP-1, 18 h) is 6.95; with IL-23 (p19/p40) (Homo sapiens, 18 h), 6.32.

As for `CCO[C@H]1C[C@@H](n2cc(NC(=O)c3csc(-c4cnn(COP(=O)(O)O)c4)n3)c(-c3ncccc3F)n2)C1` [II-163, (4-(4-((1-((cis)-3-ethoxycyclobutyl)-3-(3-fluoropyridin-2-yl)-1H-pyrazol-4-yl)carbamoyl)thiazol-2-yl)-1H-pyrazol-1-yl)methyl dihydrogen phosphate], the pEC50 in the assay on IL-23p19 (Homo sapiens, THP-1, 18 h) is 6.96; in the assay on IL-23 (p19/p40) it was 6.46.

In the case of `CCO[C@H]1C[C@@H](n2cc(NC(=O)c3csc(-c4cnn(COP(=O)(O)O)c4)n3)c(-c3ncccc3F)n2)C1` [II-164, (4-(4-((1-((cis)-3-ethoxycyclobutyl)-3-(3-fluoropyridin-2-yl)-1H-pyrazol-4-yl)carbamoyl)thiazol-2-yl)-1H-pyrazol-1-yl)methyl disodium phosphate], the negative logarithm of the EC50 (pEC50) with IL-23p19 was 6.96; in the assay with IL-23 (p19/p40), 6.04.

Consider `O=C(Nc1cn([C@H]2C[C@@H](OCC(F)(F)F)C2)nc1-c1ncccc1F)c1csc(-c2cn[nH]c2)n1` [II-165, N-(3-(3-fluoropyridin-2-yl)-1-((cis)-3-(2,2,2-trifluoroethoxy)cyclobutyl)-1H-pyrazol-4-yl)-2-(1H-pyrazol-4-yl)thiazole-4-carboxamide], for which the pEC50 in the assay on IL-23p19 (Homo sapiens, THP-1, 18 h) was 7.35; with IL-23 (p19/p40) (Homo sapiens, 18 h), 7.34.

With `O=C(Nc1cn([C@H]2C[C@H](OCC(F)(F)F)C2)nc1-c1ncccc1F)c1csc(-c2cn[nH]c2)n1` [II-167, N-(3-(3-fluoropyridin-2-yl)-1-((trans)-3-(2,2,2-trifluoroethoxy)cyclobutyl)-1H-pyrazol-4-yl)-2-(1H-pyrazol-4-yl)thiazole-4-carboxamide], the pEC50 was 7.02 in the assay with IL-23p19 (Homo sapiens, THP-1, 18 h) and 7.02 in the assay with IL-23 (p19/p40) (Homo sapiens, 18 h).

Regarding `CCO[C@H]1CC[C@H](n2cc(NC(=O)c3csc(-c4cn[nH]c4)n3)c(-c3ncccc3F)n2)CC1` [II-169, N-(1-((trans)-4-ethoxycyclohexyl)-3-(3-fluoropyridin-2-yl)-1H-pyrazol-4-yl)-2-(1H-pyrazol-4-yl)thiazole-4-carboxamide], the pEC50 is 7.38 in the assay with IL-23p19 (Homo sapiens, THP-1, 18 h) and 6.39 in the assay on IL-23 (p19/p40) (Homo sapiens, 18 h).

On to `O=C(Nc1cn([C@H]2C[C@@H](OCC(F)(F)F)C2)nc1-c1cccc(F)n1)c1csc(-c2cn[nH]c2)n1` [II-170, N-(3-(6-fluoropyridin-2-yl)-1-((cis)-3-(2,2,2-trifluoroethoxy)cyclobutyl)-1H-pyrazol-4-yl)-2-(1H-pyrazol-4-yl)thiazole-4-carboxamide], for which the negative-log EC50 (pEC50) in the assay with IL-23p19 (Homo sapiens, THP-1, 18 h) is 7.31; with IL-23 (p19/p40) (Homo sapiens, 18 h), 7.04.

In the case of `O=C(Nc1cn([C@H]2C[C@@H](O)C2)nc1-c1cccc(F)n1)c1csc(-c2cn[nH]c2)n1` [II-172, N-(3-(6-fluoropyridin-2-yl)-1-((cis)-3-hydroxycyclobutyl)-1H-pyrazol-4-yl)-2-(1H-pyrazol-4-yl)thiazole-4-carboxamide], the pEC50 was 7.89 in the assay with IL-23p19 (Homo sapiens, THP-1, 18 h) and 7.62 in the assay on IL-23 (p19/p40) (Homo sapiens, 18 h).

As for `CCO[C@H]1C[C@@H](n2cc(NC(=O)c3csc(-c4cnn(COP(=O)(O)O)c4)n3)c(-c3cccc(F)n3)n2)C1` [II-173, (4-(4-((1-((cis)-3-ethoxycyclobutyl)-3-(6-fluoropyridin-2-yl)-1H-pyrazol-4-yl)carbamoyl)thiazol-2-yl)-1H-pyrazol-1-yl)methyl dihydrogen phosphate], the pEC50 is 7.38 in the assay with IL-23p19 (Homo sapiens, THP-1, 18 h) and 6.50 in the assay with IL-23 (p19/p40) (Homo sapiens, 18 h).

Regarding `CCO[C@H]1C[C@@H](n2cc(NC(=O)c3csc(-c4cn[nH]c4)n3)c(-c3nc(F)ccc3F)n2)C1` [II-174, N-(3-(3,6-difluoropyridin-2-yl)-1-((cis)-3-ethoxycyclobutyl)-1H-pyrazol-4-yl)-2-(1H-pyrazol-4-yl)thiazole-4-carboxamide], the negative logarithm of the EC50 (pEC50) is 7.09 in the assay with IL-23p19 (Homo sapiens, THP-1, 18 h) and 7.15 in the assay on IL-23 (p19/p40) (Homo sapiens, 18 h).

Take `CCO[C@H]1CC[C@H](n2cc(NC(=O)c3csc(-c4cn[nH]c4)n3)c(-c3nnco3)n2)CC1` [II-178, N-(1-((1r,4r)-4-ethoxycyclohexyl)-3-(1,3,4-oxadiazol-2-yl)-1H-pyrazol-4-yl)-2-(1H-pyrazol-4-yl)thiazole-4-carboxamide]: the pEC50 with IL-23p19 (Homo sapiens, THP-1, 18 h) is 6.92; with IL-23 (p19/p40) (Homo sapiens, 18 h), 7.43.

For `O=C(Nc1cn([C@H]2CC[C@H](NCC(F)F)CC2)nc1-c1ncccn1)c1csc(-c2cn[nH]c2)n1` [II-179, N-(1-((1r,4r)-4-((2,2-difluoroethyl)amino)cyclohexyl)-3-(pyrimidin-2-yl)-1H-pyrazol-4-yl)-2-(1H-pyrazol-4-yl)thiazole-4-carboxamide], the pEC50 in the assay on IL-23p19 (Homo sapiens, THP-1, 18 h) is 7.90; in the assay with IL-23 (p19/p40) (Homo sapiens, 18 h) it was 7.13.

With `CCO[C@H]1CC[C@H](n2cc(NC(=O)c3csc(-c4cn[nH]c4)n3)c(-c3ncc(F)cc3F)n2)CC1` [II-180, N-(3-(3,5-difluoropyridin-2-yl)-1-((1r,4r)-4-ethoxycyclohexyl)-1H-pyrazol-4-yl)-2-(1H-pyrazol-4-yl)thiazole-4-carboxamide], the negative logarithm of the EC50 (pEC50) was 7.10 in the assay with IL-23p19 (Homo sapiens, THP-1, 18 h) and 6.58 in the assay with IL-23 (p19/p40) (Homo sapiens, 18 h).

As to `O=C(Nc1cn(C2CCOCC2)nc1-c1ccccn1)c1coc(-c2cn[nH]c2)n1` [III-2, 2-(1H-pyrazol-4-yl)-N-(3-(pyridin-2-yl)-1-(tetrahydro-2H-pyran-4-yl)-1H-pyrazol-4-yl)oxazole-4-carboxamide], the negative-log EC50 (pEC50) in the assay with IL-23p19 (Homo sapiens, THP-1, 18 h) is 7.40; in the assay with IL-23 (p19/p40) (Homo sapiens, 18 h) it was 6.87.

For the molecule `CCOCCn1cc(NC(=O)c2coc(-c3cn[nH]c3)n2)c(-c2ccccn2)n1` [III-3, N-(1-(2-ethoxyethyl)-3-(pyridin-2-yl)-1H-pyrazol-4-yl)-2-(1H-pyrazol-4-yl)oxazole-4-carboxamide], the pEC50 is 6.61 with IL-23p19 (Homo sapiens, THP-1, 18 h) and 6.77 in the assay with IL-23 (p19/p40) (Homo sapiens, 18 h).

As for `CCO[C@H]1C[C@@H](n2cc(NC(=O)c3coc(-c4cn[nH]c4)n3)c(-c3ccccn3)n2)C1` [III-4, N-(1-((1s,3s)-3-ethoxycyclobutyl)-3-(pyridin-2-yl)-1H-pyrazol-4-yl)-2-(1H-pyrazol-4-yl)oxazole-4-carboxamide], the pEC50 in the assay with IL-23p19 (Homo sapiens, THP-1, 18 h) is 7.36; in the assay with IL-23 (p19/p40) (Homo sapiens, 18 h), 7.43.
